Assay [1] has as its system S. aureus ATCC 13709 Novobiocin resistant mutant (bone infection). Kind of assay: Prophylactic efficacy in rat model of S. aureus bone infection. The class given is in vivo. The settings on record: rat tibia 24 h postinfection. Here is the method: Specifically, a spontaneous Novobiocin resistant mutant strain of S. aureus ATCC 13709 (a clinical osteomyelitis isolate), was grown overnight at 37° C. in brain heart infusion broth (BHIB). After 16 h of growth, cells were subcultured into fresh BHIB and incubated for 4 to 5 h at 37° C. The cells were washed twice with phosphate-buffered saline (PBS) and resuspended in BHIB supplemented with 10% (vol./vol.) fetal bovine serum at a density of approximately 10^10 colony forming units (CFU)/ml (based upon turbidimetry). The suspension was aliquoted and a portion was used to check the CFU count. The culture was stored frozen (−80° C.) and was used without subculture. For use as an inoculum the culture was thawed, diluted in PBS and kept in an ice bath until it was used.
Animals were infected as described by O'Reilly et al. (Antimicrobial Agents and Chemotherapy (1992), 36(12): 2693-97) to generate the bone infection. Female CD rats (age, 57 to 70 days; n=5/group; Charles River, St-Constant, Canada) were anaesthetized by isofluorane before and during the surgery. Following complete induction of anesthesia, the rat was placed ventral side up and hair was shaved from the surgical site. The skin over the leg was cleaned and disinfected (proviodine-ethanol 70%). A longitudinal incision below the knee joint was made in the sagital plane. The incision was made over the bone below the “knee joint” (tibia head or condyle) but not completely extending to the ankle. A high speed drill fitted with a 2 mm bulb bit was used to drill a hole into the medullar cavity of the tibia. Rats were injected intra-tibially with 0.05 ml 5% sodium morrhuate (sclerosing agent) and then with 0.05 ml of S. aureus suspension (ca. 2×10^7 CFU/rat). The hole was sealed by applying a small amount of dry dental cement which immediately absorbs fluids and adheres to the site. The wound was closed using 3 metal skin clips. Moxifloxacin (as a positive control) was injected once at 10 mg/kg intravenously 1 h postinfection in saline, while the Rifamycin derived prodrugs (prepared in 0.9% saline) were injected at the dose indicated in Table 3 as a single intravenous bolus at different time points prior to the infection.
Infected rats were sacrificed by CO2 asphyxiation 24 h postinfection to monitor the bacterial CFU count. Infected tibiae were removed, dissected free of soft tissue, and weighed. The bones were ground, resuspended in 5 ml 0.9% NaCl, serially diluted and processed for quantitative cultures. For compounds 50, 68 and 81, 1 ml of the 0.9% NaCl solution was added to 50 mg of charcoal before serial dilutions. Treatment efficacy was measured in terms of Log viable bacteria (Log CFU per gram of bone). […] The limit of detection is 2 Log CFU. […] Differences were considered significant when the P value was <0.05 when comparing treated infected animals to the untreated infected ones. The doses used, the amount of time separating the treatment from the time of infection and the treatment outcomes are shown in Table 3.

In assay [2] the test system is S. aureus RN4220. As to the kind of experiment: Antibacterial susceptibility (MIC), NCCLS broth microdilution. The note with it: CAMHB, 37° C., 18 h; for MIC: Staphylococcus aureus, RN4220, read-out: Minimum inhibitory concentration, S. aureus RN4220. The format is cell-based. Here is the method: (§1) Susceptibility of S. aureus strains to the known antibiotics and synthesized compounds was determined by following the guidelines set by NCCLS (M26-A). Compounds were diluted two-fold serially in DMSO and transferred to cation-adjusted Mueller Hinton broth (CAMHB; Becton Dickinson). 50 μL of compounds diluted in CAMHB was mixed with 100 μL of bacteria diluted in CAMHB in 96-well microtiter plates. The final concentration of micro-organisms in the assay was 5×10^5 c.f.u. per mL and the final concentration of DMSO in the assay was 1.25%. Assays were set up in duplicate and incubated at 37° C. for 18 h. The lowest concentration of compound that inhibited visible growth was reported as the minimum inhibitory concentration (MIC).
Background: Dilution methods test growth across graded concentrations, often in twofold steps.

Assay [3] deals with S. aureus ATCC 43300 (Fluoroquinolone sensitive MRSA). The assay is described as above. The format is cell-based. The note with it: for MIC: Staphylococcus aureus, read-out: Minimum inhibitory concentration, S. aureus ATCC 43300. Here is the method: as §1
Assay [4] has as its system S. aureus ATCC 13709. Described as above. The format is cell-based. The settings on record: for MIC: Staphylococcus aureus, ATCC13709, read-out: Minimum inhibitory concentration, S. aureus ATCC 13709. As to the method:
as §1

The subject of assay [5] is E. coli LBB925 (tolC mutant). Described as above. The class given is cell-based. The settings on record: for MIC: Escherichia coli, read-out: Minimum inhibitory concentration, E. coli LBB925.
Assay [6] has as its system S. aureus ATCC 13709. As to the kind of experiment: Antibacterial susceptibility (MIC) in the presence of serum. The format is cell-based. The note with it: for MIC: Staphylococcus aureus, ATCC13709, 18 h. As to the method:
as §1
Susceptibility testing experiments were also carried out in the presence of serum.
These experiments were carried out similar to the susceptibility testing with the following modifications. 75 μL of compounds diluted in CAMHB was mixed with 75 μL of bacteria diluted in 100% serum from any given source (commercial pooled mouse serum (MS) and human serum (HS), Equitech-Bio Inc.) or diluted in 8% purified human serum albumin (HSA) (Calbiochem). The final concentration of animal serum in the assay was 50% and the final concentration of purified human serum albumin in the assay was 4%; the concentrations of all other components were identical to those described for susceptibility testing.

For assay [7], the system named is S. aureus BK85 (Fluoroquinolone resistant MRSA). As to the kind of experiment: Antibacterial susceptibility (MIC), NCCLS broth microdilution. The class given is cell-based. The note with it: for MIC: Staphylococcus aureus, read-out: Minimum inhibitory concentration, S. aureus BK85. As to the method: as §1
In assay [8] the test system is S. aureus ATCC 13709 Novobiocin and Rifampicin resistant variant. As to the kind of experiment: microbe, parasite or virus in culture. The class given is cell-based. Here is the method:
as §1

Setting [9] is: read-out: Minimum inhibitory concentration, S. aureus ATCC 13709 + 50% Human Serum.
Where [10] appears, read: read-out: Minimum inhibitory concentration, S. aureus ATCC 13709 + 50% Mouse Serum.
Setting [11] is: read-out: Minimum inhibitory concentration, S. aureus ATCC 13709 + 50% Rat Serum.

Converted amounts (≈) assume the structure as drawn. “And” between values parts separate entries of the source, which are not always exact repeats. Equal entries are not always repeated. Where only a bound is given, the exact number is not on record here.

On to `CO[C@H]1/C=C/O[C@@]2(C)Oc3c(C)c(O)c4c(=O)c(c5oc6cc(N7CCN(CCO)CC7)cc(O)c6nc-5c4c3C2=O)NC(=O)/C(C)=C\C=C\[C@H](C)[C@H](O)[C@@H](C)[C@@H](O)[C@@H](C)[C@H](OC(C)=O)[C@@H]1C` [Compound 56, 1′,4-Didehydro-1-deoxy-1,4-dihydro-3′-hydroxy-5′-[4-(2-hydroxyethyl)-1-piperazinyl]-1-oxorifamycin VIII], for which, in assay [1] (single dose 20 mg/kg parent drug equivalent, 2 days prior to infection), the Measured bacterial titer was 3.61 ± 1.57 Log CFU/g of bone. In addition, the MIC in assay [2] is 0.25 ng/mL (≈ 0.269 nM); in assay [3], 0.25 ng/mL (≈ 0.269 nM); in assay [4] it was 0.25 ng/mL (≈ 0.269 nM); in assay [5] it was 8 µg/mL (≈ 8610 nM); in assay [6] (setting [9]), 1 ng/mL; in assay [6] (setting [10]), 2 ng/mL. Also, the MIC in assay [6] (setting [11]) was found to be 2 ng/mL.

As to `CO[C@H]1/C=C/O[C@@]2(C)Oc3c(C)c(O)c4c(O)c(c(/C=N/N5CCN(C)CC5)c(O)c4c3C2=O)NC(=O)/C(C)=C\C=C\[C@H](C)[C@H](O)[C@@H](C)[C@@H](O)[C@@H](C)[C@H](OC(C)=O)[C@@H]1C` [Rifampicin, reference compound], the MIC in assay [7] is 8 ng/mL (≈ 9.72 nM); in assay [2], 8 ng/mL (≈ 9.72 nM); in assay [3], 8 ng/mL (≈ 9.72 nM); in assay [4] it was 8 ng/mL (≈ 9.72 nM); in assay [5] it was 8 µg/mL (≈ 9720 nM); in assay [8] (Staphylococcus aureus, ATCC13709, read-out: Minimum inhibitory concentration, S. aureus ATCC 13709 variant), greater than 128 µg/mL. The MIC was 62 ng/mL in assay [6] (setting [9]), 125 ng/mL in assay [6] (setting [10]) and 125 ng/mL in assay [6] (setting [11]).

On to `CO[C@H]1/C=C/O[C@@]2(C)Oc3c(C)c(O)c4c(=O)c(c5oc6cc(N7CCNCC7)cc(O)c6nc-5c4c3C2=O)NC(=O)/C(C)=C\C=C\[C@H](C)[C@H](O)[C@@H](C)[C@@H](O)[C@@H](C)[C@H](OC(C)=O)[C@@H]1C` [Compound 69, 1′,4-Didehydro-1-deoxy-1,4-dihydro-3′-hydroxy-5′-[1-piperazinyl]-1-oxorifamycin VIII], for which the MIC was 0.24 ng/mL (≈ 0.271 nM) in assay [7]; 0.48 ng/mL (≈ 0.542 nM) in assay [4]; 4 µg/mL (≈ 4520 nM) in assay [5]; 1.9 ng/mL in assay [6] (setting [9]); 1.9 ng/mL in assay [6] (setting [10]); 1.9 ng/mL in assay [6] (setting [11]).

For the molecule `COc1c(N2C[C@@H]3CCCN[C@@H]3C2)c(F)cc2c(=O)c(C(=O)O)cn(C3CC3)c12` [Moxifloxacin, reference compound], in assay [1] (10 mg/kg intravenously once, 1 h postinfection, 10 mg/kg), the “Measured bacterial titer, positive control” value was 2.36 ± 0.21 Log CFU/g of bone and 2.53 ± 0.39 Log CFU/g of bone and 2.59 ± 0.56 Log CFU/g of bone and 2.46 ± 0.52 Log CFU/g of bone and 2.56 ± 0.64 Log CFU/g of bone and 2.20 ± 0.33 Log CFU/g of bone and 2.32 ± 0.33 Log CFU/g of bone and 2.06 ± 0.04 Log CFU/g of bone.

With `CCN(CC)CC.CCN(CC)CC.CO[C@H]1/C=C/O[C@@]2(C)Oc3c(C)c(O)c4c(c3C2=O)C2=NC3(CCN(CC(C)C)CC3)NC2=C(NC(=O)/C(C)=C\C=C\[C@H](C)[C@H](OC(=O)CCCOC(=O)CCC(=O)NC(P(=O)(O)O)P(=O)(O)O)[C@@H](C)[C@@H](O)[C@@H](C)[C@H](OC(C)=O)[C@@H]1C)C4=O` [Compound 54, 21-O-(4-((3-(bisphosphonomethyl)carbamoyl)propanoyloxy)butanoyl)-1′,4-didehydro-1-deoxy-1,4-dihydro-5′-(2-methylpropyl)-1-oxorifamycin XIV], the “Minimum inhibitory concentration, S. aureus BK85” value in assay [7] amounted to 64 µg/mL. Besides, the “Minimum inhibitory concentration, S. aureus RN4220” value in assay [2] came to 64 µg/mL. The “Minimum inhibitory concentration, S. aureus ATCC 43300” value in assay [3] was found to be 64 µg/mL. In addition, the “Minimum inhibitory concentration, S. aureus ATCC 13709” value in assay [4] was 64 µg/mL. In addition, the “Antibacterial activity (in words, summary of Table 1)” value in assay [4] (summary over the strains of Table 1) is “near complete loss of activity”. In addition, the “Minimum inhibitory concentration, E. coli LBB925” value in assay [5] (tolC mutant) was greater than 128 µg/mL. In addition, in assay [8], the “Activity against the Rifampicin resistant variant of S. aureus ATCC13709 (in words)” value is recorded as “complete lack of activity”. The “Minimum inhibitory concentration, S. aureus ATCC 13709 variant” value in assay [8] (Novobiocin and Rifampicin resistant variant) is greater than 128 µg/mL. In addition, the “Impact of serum on the MICs (in words)” value in assay [6] is “no impact”. The “Minimum inhibitory concentration, S. aureus ATCC 13709 + 50% Human Serum” value in assay [6] (50% Human Serum) is greater than 128 µg/mL. For the same molecule, in assay [6] (50% Mouse Serum), the “Minimum inhibitory concentration, S. aureus ATCC 13709 + 50% Mouse Serum” value was greater than 128 µg/mL. Besides, the “Minimum inhibitory concentration, S. aureus ATCC 13709 + 50% Rat Serum” value in assay [6] (50% Rat Serum) is greater than 128 µg/mL.

The values are drawn from patent US8404664B2, “Phosphonated Rifamycins and uses thereof for the prevention and treatment of bone and joint infections” (Targanta Therapeutics, Inc., priority 2005, dated 2013).
